Results on 2 compounds are retold here after publication PMC5941067, “Novel Xanthomonas campestris Long-Chain-Specific 3-Oxoacyl-Acyl Carrier Protein Reductase Involved in Diffusible Signal Factor Synthesis” (mBio, 2018).

The structures appear in SMILES notation.

Assay [1] concerns the target T1, FabG1 (XCC1018) (Xanthomonas campestris, UniProt Q8PBU9).
T1 construct: gene fabG; full length, pET-28(b) construct (His tag), E. coli BL21(DE3)
Kind of assay: NADPH absorbance decrease at […] nm. Format: biochemical. Conditions: hydride donor; 3-oxodecanoyl-ACP generated in situ by E. coli FabD and FabB from acyl-ACP and malonyl-CoA.

Assay [2] addresses T2, X. campestris pv. campestris FabH (Xanthomonas campestris, UniProt Q8PBV1).
T2 construct: purification and tag of this protein not described in the main text
Kind of assay: coupled reaction, MALDI-TOF MS of acyl-ACP products. Format: biochemical. Conditions: co-substrate malonyl-ACP; with FabG1 or FabG2 and E. coli FabA.

T1 sequence (Q8PBU9 entry or part of it): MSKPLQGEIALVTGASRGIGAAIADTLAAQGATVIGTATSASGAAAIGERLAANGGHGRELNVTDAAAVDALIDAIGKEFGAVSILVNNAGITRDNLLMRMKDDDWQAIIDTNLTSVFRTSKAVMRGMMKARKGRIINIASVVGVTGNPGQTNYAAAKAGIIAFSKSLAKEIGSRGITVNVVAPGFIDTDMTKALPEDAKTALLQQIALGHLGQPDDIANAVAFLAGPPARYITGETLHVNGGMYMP
T2 sequence (Q8PBV1 whole entry): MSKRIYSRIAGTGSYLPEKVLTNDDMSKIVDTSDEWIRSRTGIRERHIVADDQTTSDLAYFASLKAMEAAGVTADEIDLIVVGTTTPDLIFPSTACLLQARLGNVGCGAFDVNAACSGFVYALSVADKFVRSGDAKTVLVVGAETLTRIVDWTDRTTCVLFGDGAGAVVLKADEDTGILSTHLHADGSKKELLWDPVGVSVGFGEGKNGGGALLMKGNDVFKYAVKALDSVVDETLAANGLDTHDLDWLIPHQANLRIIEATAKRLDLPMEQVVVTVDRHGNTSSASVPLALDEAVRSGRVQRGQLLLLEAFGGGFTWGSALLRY

As to `NC(=O)C1=CN([C@@H]2O[C@H](COP(=O)(O)OP(=O)(O)OC[C@H]3O[C@@H](n4cnc5c(N)ncnc54)[C@H](OP(=O)(O)O)[C@@H]3O)[C@@H](O)[C@H]2O)C=CC1` [NADPH], in assay [1], the “NADPH absorbance decrease at 340 nm” value is on record as “The maximal rate of NADPH reduction of 3-oxodecanoyl-ACP by FabG2”. For the compound `CCCCCCCC(=O)SCCNC(=O)CCNC(=O)[C@H](O)C(C)(C)COP(=O)(O)OP(=O)(O)OC[C@H]1O[C@@H](n2cnc3c(N)ncnc32)[C@H](O)[C@@H]1OP(=O)(O)O` [octanoyl-CoA], in assay [2], the “coupled reaction, MALDI-TOF MS of acyl-ACP products” value is “X. campestris pv. campestris FabH, octanoyl-CoA, and malonyl-ACP replaced octanoyl-ACP”.
